Structures are written as SMILES. Bounds are passed on as bounds.

Experiment [1] deals with gut microbiota. Kind of experiment: Restoration of gut flora after ampicillin treatment with or without cIAP (stool culture in LB media). Type of experiment: in vivo, mice (C57BL/6). As for the experimental part: An experiment was performed in which five mice (C57BL/6) of each test group, approximately 6 weeks old, were treated with 1 mg/ml of the antimicrobial drug ampicillin, in the presence or absence of calf intestinal alkaline phosphatase (cIAP) (New England Biolabs, Ipswich, Mass.). Ampicillin was administered orally with the animal's drinking water at a concentration of 1 mg/ml, and 250 units of cIAP were administered twice daily as oral gavage. Individual stool samples of each group were cultured in LB media each day and analyzed for the presence/absence of the gut flora. The gut flora of mice before receiving the antibiotic was considered as a baseline control for normal gastrointestinal tract flora (present in all samples). […] Both treatment groups received ampicillin for 10 days.

The next experiment deals with IAP. Kind of experiment: Stool IAP activity in PTU-treated mice given T3 (hyperthyroid). Format: in vivo. The source says:
In WT mice, IAP (Akp3 isoform) is expressed at postnatal Day 15 (Narisawa et al., Am J Physiol Gastrointest Liver Physiol, 293:G1068, 2007), while IAP-KO mice lack this enzyme for their entire life. However, a variety of pathophysiological conditions can lead to altered IAP expression in adult WT animals, which may affect their intestinal flora. Accordingly, stool samples of hypothyroid and hyperthyroid mice were examined, since IAP is known to be silenced in hypothyroid animals and dramatically over-expressed in hyperthyroid animals (Hodin et al., Surgery, 120:138, 1996; Malo et al., Mol Endocrinol, 18:1941, 2004). For 32 weeks, groups of mice (n=5) were given water containing 0.05% propylthiouracil (PTU) in order to induce hypothyroidism by inhibiting both thyroid hormone biosynthesis and peripheral T4 deiodination (Cooper et al., Biochem Pharmacol, 33:3391, 1984). After 6 weeks of PTU treatment, one group received a daily i.p. injection of T3 (30 μg per 100 gm body weight, hyperthyroid) and the other group received a daily i.p. injection of normal saline (0.9% NaCl, hypothyroid) for 26 weeks (Hodin et al., Surgery, 120:138, 1996).
IAP activity was determined following the protocol as described by Baykov et al. (Anal Biochem, 171:266, 1988). Briefly, individual stool samples were homogenized in water (10 mg/100 μl), centrifuged and supernatant was collected. Then 25 μl of the stool supernatant (or aqueous cIAP solution) were mixed with 175 μl phosphatase assay reagent containing 5 mM of p-nitrophenyl phosphate (pNPP) followed by determining optical density at 405 nm after a specific time period when the samples usually turned yellow due to release of p-nitrophenol. Protein concentrations of stool supernatants were measured using a kit from Bio-Rad Laboratories (Hercules, Calif.). The specific activity of the enzyme, expressed as pmole pNPP hydrolyzed per minute per μg of protein, and CFU per gm of stool +/− SEM were determined and the results are shown in FIG. 3. […]

Experiment [2] has as its system gut microbiota. Kind of experiment: Restoration of gut flora after streptomycin treatment with or without cIAP (stool culture in LB media). Format: in vivo, mice (C57BL/6). How it is done:
To address the role of intestinal alkaline phosphatase on the gastrointestinal tract flora of mammals, an experiment was performed in which five approximately six week old mice (C57BL/6) of each test group were treated with an antimicrobial drug, streptomycin, in the presence or absence of calf intestinal alkaline phosphatase (cIAP) (Sigma, St. Louis, Mo.). Both streptomycin (5 mg/ml) and cIAP (50 units/ml) were administered orally with the animal's drinking water. Individual stool samples of each group were cultured in LB media each day and analyzed for the presence/absence of gut flora. The gastrointestinal tract flora of mice before antibiotic treatment was considered as a baseline control for the normal gut flora (present in all samples).

Experiment [3] has as its system Gram-negative bacteria (mostly E. coli). Kind of experiment: Restoration of commensal Gram-negative gut flora in streptomycin-treated WT mice with or without cIAP (MacConkey agar). Type of experiment: in vivo. The conditions noted are these: streptomycin 5 mg/ml in drinking water. How it is done: Accordingly, experiments were performed in which groups of WT mice (n=10) were treated orally with the antibiotic streptomycin in the presence or absence of cIAP. Streptomycin (5 mg/ml) and cIAP (200 U/ml for cIAP^+ Group, n=5) or ‘vehicle for cIAP’ (20 μl/ml ‘vehicle for cIAP’ (50 mM KCl, 10 mM Tris-HCl (pH 8.2), 1 mM MgCl, 0.1 mM ZnCl2, and 50% glycerol) in drinking water for control cIAP^− Group, n=5) were administered in the animals' drinking water and fecal cultures were performed.
Individual stool samples were cultured each day on MacConkey agar media. […] After discontinuation of antibiotic treatment, the time of appearance (Day) of Gram-negative bacteria (mostly E. coli, occasionally P. mirabilis) in stool samples was recorded for each animal. The experiment was repeated six times, which raised the total number of animals in each group to 39 (n=39), however, duration of each experiment varied (7-35 days). Data was compiled from all six experiments and the number of animals with E. coli in each group on a specific day was recorded.

In the case of `CC1(C)S[C@@H]2[C@H](NC(=O)[C@H](N)c3ccccc3)C(=O)N2[C@H]1C(=O)O` [Ampicillin alone, ampicillin], the “Bacteria in the stool” value is listed as “Present” in the experiment on gut microbiota [1] (Day 1); “Absent” in the experiment with gut microbiota [1] (Day 2); “Absent” in the experiment with gut microbiota [1] (Day 3); “Absent” in the experiment on gut microbiota [1] (Day 4); “Absent” with gut microbiota [1] (Day 5); “Absent” with gut microbiota [1] (Day 6). Further, the “Bacteria in the stool” value in the experiment with gut microbiota [1] (Day 7), in the experiment on gut microbiota [1] (Day 8), with gut microbiota [1] (Day 9), in the experiment on gut microbiota [1] (Day 10), with gut microbiota [1] (Day 11) and in the experiment on gut microbiota [1] (Day 12) was “Absent” throughout. Also, the “Bacteria in the stool” value in the experiment on gut microbiota [1] (Day 13), in the experiment with gut microbiota [1] (Day 14), with gut microbiota [1] (Day 15), in the experiment with gut microbiota [1] (Day 16), in the experiment on gut microbiota [1] (Day 17) and in the experiment with gut microbiota [1] (Day 18) was “Absent” in each case. In addition, the “Bacteria in the stool” value in the experiment on gut microbiota [1] (Day 19) was “Absent”; in the experiment on gut microbiota [1] (Day 20) it was “Absent”; in the experiment on gut microbiota [1] (Day 21) it was “Absent”; with gut microbiota [1] (Day 22), “Absent”; in the experiment with gut microbiota [1] (Day 23), “Absent”; in the experiment with gut microbiota [1] (Day 24), “Present”. For the same molecule, the “Day at which stools showed normal gut flora” value in the experiment with gut microbiota [1] (ampicillin for 10 days) came out at 24 days. For the same molecule, the “No bacterial growth in stools until” value with gut microbiota [1] (ampicillin for 10 days) worked out at 23 days.

As for `N[C@@H](Cc1cc(I)c(Oc2ccc(O)c(I)c2)c(I)c1)C(=O)O` [T3], in the experiment on IAP (Week 32, hyperthyroid animals), the “Stool IAP activity, higher compared to euthyroid animals” value was “approximately 7 fold” and the “Stool IAP activity, higher compared to hypothyroid animals” value was ~15 fold. For the same molecule, the “IAP activity in stools” value in the experiment with IAP (Weeks 12-32, daily i.p. T3) is “increased IAP activity”.

For the molecule `[H]/N=C(/N)N[C@H]1[C@H](O)[C@@H](O)[C@H](O[C@@H]2O[C@@H](C)[C@](O)(C=O)[C@H]2O[C@@H]2O[C@@H](CO)[C@H](O)[C@@H](O)[C@@H]2NC)[C@@H](N/C(N)=N\[H])[C@@H]1O` [Streptomycin alone, streptomycin], the “Bacterial growth in stools” value with gut microbiota [2] (24 hours after discontinuation of streptomycin) is given as “no bacterial growth”. The “Bacteria in the stool” value in the experiment with gut microbiota [2] (Day 1), in the experiment with gut microbiota [2] (Day 2), in the experiment with gut microbiota [2] (Day 3), in the experiment on gut microbiota [2] (Day 4), in the experiment with gut microbiota [2] (Day 5) and in the experiment with gut microbiota [2] (Day 6) was “Absent” in each case. Also, the “Bacteria in the stool” value was “Absent” in the experiment with gut microbiota [2] (Day 7), “Absent” with gut microbiota [2] (Day 8), “Absent” with gut microbiota [2] (Day 9) and “Present” in the experiment with gut microbiota [2] (Day 10). For the same molecule, the “Time stools remained sterile” value in the experiment on gut microbiota [2] (after streptomycin for 24 hours) is given as “up to nine”. The “Day at which stools showed signs of the normal gastrointestinal tract flora” value in the experiment on gut microbiota [2] (streptomycin for 24 hours) was 10 days. Besides, in experiment [3], the “Time to elimination of aerobic Gram-negative organisms in all animals” value is ≤ 24 h.

These data come from US20170252327A1, “Methods of Modulating Gastrointestinal Tract Flora Levels with Alkaline Phosphatase” (priority 2008, published 2017).
